Key:
[1] = system: morningglory; test: Test C preemergence; type: in vivo, Ipomoea coccinea; conditions: for Morningglory plant response rating: preemergence; for Plant response rating, Morningglory: Preemergence, 31 g ai/ha, scale 0 to 100, 0 no effect, 100 complete control
Summary of the method: (§1)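 Plants were kept under greenhouse conditions for 13–15 days following spray. Pre-emergent application went to soil (loam–sand), post-emergent to foliage at 1–4 leaves. Evaluation: visual, percent control against untreated checks.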

[2] = system: blackgrass; test: Test C preemergence; type: in vivo, Alopecurus myosuroides; conditions: for Blackgrass plant response rating: preemergence; for Plant response rating, Blackgrass: Preemergence, 31 g ai/ha, scale 0 to 100, 0 no effect, 100 complete control
Summary of the method: as §1

[3] = system: barnyardgrass; test: Test C postemergence; type: in vivo, Echinochloa crus-galli; conditions: for Barnyardgrass plant response rating: 16 g ai/ha, visual rating; for Barnyardgrass plant response rating / Plant response rating (0 to 100), Barnyardgrass: postemergence; for Barnyardgrass plant response rating / Plant response rating, Barnyardgrass: scale 0 to 100 (0 no effect, 100 complete control); for Plant response rating (0 to 100), Barnyardgrass: 125 g ai/ha; for Plant response rating, Barnyardgrass: Postemergence
Summary of the method: as §1

[4] = system: chickweed; test: Test C postemergence; type: in vivo, Stellaria media; conditions: for Chickweed plant response rating: 16 g ai/ha, visual rating; for Chickweed plant response rating / Plant response rating (0 to 100), Chickweed: postemergence; for Chickweed plant response rating / Plant response rating, Chickweed: scale 0 to 100 (0 no effect, 100 complete control); for Plant response rating (0 to 100), Chickweed: 125 g ai/ha; for Plant response rating, Chickweed: Postemergence
Summary of the method: as §1

[5] = system: wild oat; test: Test C postemergence; type: in vivo, Avena fatua; conditions: for Plant response rating (0 to 100), Oat, Wild: 125 g ai/ha, postemergence; for Plant response rating, Oat, Wild: Postemergence, scale 0 to 100 (0 no effect, 100 complete control)
Summary of the method: as §1

[6] = system: yellow nutsedge; test: Test C postemergence; type: in vivo, Cyperus esculentus; conditions: for Plant response rating (0 to 100), Nutsedge, Yellow: 125 g ai/ha, postemergence; for Plant response rating, Nutsedge, Yellow: Postemergence, scale 0 to 100 (0 no effect, 100 complete control)
Summary of the method: as §1

[7] = system: blackgrass; test: Test C postemergence; type: in vivo, Alopecurus myosuroides; conditions: for Blackgrass plant response rating: 16 g ai/ha, visual rating; for Blackgrass plant response rating / Plant response rating (0 to 100), Blackgrass: postemergence; for Blackgrass plant response rating / Plant response rating, Blackgrass: scale 0 to 100 (0 no effect, 100 complete control); for Plant response rating (0 to 100), Blackgrass: 125 g ai/ha; for Plant response rating, Blackgrass: Postemergence
Summary of the method: as §1

[8] = system: ragweed; test: Test C preemergence; type: in vivo, Ambrosia elatior; conditions: for Ragweed plant response rating: preemergence; for Plant response rating, Ragweed: Preemergence, 31 g ai/ha, scale 0 to 100, 0 no effect, 100 complete control
Summary of the method: as §1

[9] = system: wheat, winter; test: Test C postemergence; type: in vivo, Triticum aestivum; conditions: for Plant response rating (0 to 100), Wheat: 125 g ai/ha, postemergence; for Plant response rating, Wheat: Postemergence, scale 0 to 100 (0 no effect, 100 complete control)
Summary of the method: as §1

[10] = system: yellow nutsedge; test: Test C preemergence; type: in vivo, Cyperus esculentus; conditions: for Nutsedge, Yellow plant response rating: preemergence; for Plant response rating, Nutsedge, Yellow: Preemergence, 31 g ai/ha, scale 0 to 100, 0 no effect, 100 complete control
Summary of the method: as §1

[11] = system: pigweed; test: Test A preemergence; type: in vivo, Amaranthus retroflexus; conditions: for Plant response rating, Pigweed: 125 g ai/ha, 0 to 100 scale where 0 is no effect and 100 is complete control; for Pigweed plant response rating: 500 g ai/ha, 0 to 100 scale, 0 no effect, 100 complete control, approx. 10 days
Summary of the method: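 Visual injury scored 0–100 (100 = complete control) against untreated controls about 10 days after treatment in a greenhouse. Test chemicals, formulated with surfactant in non-phytotoxic solvent, were sprayed on soil preemergence or on 2-10 cm, one- to two-leaf plants postemergence.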

[12] = system: corn; test: Test C postemergence; type: in vivo, Zea mays; conditions: for Corn plant response rating: 16 g ai/ha, visual rating; for Corn plant response rating / Plant response rating (0 to 100), Corn: postemergence; for Corn plant response rating / Plant response rating, Corn: scale 0 to 100 (0 no effect, 100 complete control); for Plant response rating (0 to 100), Corn: 125 g ai/ha; for Plant response rating, Corn: Postemergence
Summary of the method: as §1

[13] = system: Italian ryegrass; test: Test C preemergence; type: in vivo, Lolium multiflorum; conditions: for Ryegrass, Italian plant response rating: preemergence; for Plant response rating, Ryegrass, Italian: Preemergence, 31 g ai/ha, scale 0 to 100, 0 no effect, 100 complete control
Summary of the method: as §1

[14] = system: giant foxtail; test: Test C postemergence; type: in vivo, Setaria faberii; conditions: for Foxtail, Giant plant response rating: 16 g ai/ha, visual rating; for Foxtail, Giant plant response rating / Plant response rating (0 to 100), Foxtail, Giant: postemergence; for Foxtail, Giant plant response rating / Plant response rating, Foxtail, Giant: scale 0 to 100 (0 no effect, 100 complete control); for Plant response rating (0 to 100), Foxtail, Giant: 125 g ai/ha; for Plant response rating, Foxtail, Giant: Postemergence
Summary of the method: as §1

[15] = system: soybean; test: Test C preemergence; type: in vivo, Glycine max; conditions: for Soybean plant response rating: preemergence; for Plant response rating, Soybean: Preemergence, 31 g ai/ha, scale 0 to 100, 0 no effect, 100 complete control
Summary of the method: as §1

[16] = system: pigweed; test: Test C preemergence; type: in vivo, Amaranthus retroflexus; conditions: for Pigweed plant response rating: preemergence; for Plant response rating, Pigweed: Preemergence, 31 g ai/ha, scale 0 to 100, 0 no effect, 100 complete control
Summary of the method: as §1

[17] = 16 g ai/ha, scale 0 to 100 (0 no effect, 100 complete control)
[18] = 62 g ai/ha, scale 0 (no effect) to 100 (complete control)
[19] = 125 g ai/ha, scale 0 (no effect) to 100 (complete control)

**Q.** What does the source list for `CCOc1cnn(-c2c(C#N)cccc2Oc2ncc(F)cn2)c1` [Compound 89]?
**A.** Morningglory plant response rating [1, 17]: 45; Morningglory plant response rating [1, 18]: 95; Morningglory plant response rating [1, 19]: 98; Plant response rating, Morningglory [1]: 35; Blackgrass plant response rating [2, 17]: 0; Blackgrass plant response rating [2, 18]: 5; Blackgrass plant response rating [2, 19]: 50; Plant response rating, Blackgrass [2]: 0; Barnyardgrass plant response rating ([3]; 13 to 15 days): 0; Plant response rating (0 to 100), Barnyardgrass [3]: 5; Plant response rating, Barnyardgrass ([3]; 31 g ai/ha, 13 to 15 days): 5; Plant response rating, Barnyardgrass ([3]; 62 g ai/ha): 5; Chickweed plant response rating ([4]; 13 to 15 days): 20; Plant response rating (0 to 100), Chickweed [4]: 60; Plant response rating, Chickweed ([4]; 31 g ai/ha, 13 to 15 days): 50; Plant response rating, Chickweed ([4]; 62 g ai/ha): 50; Plant response rating (0 to 100), Oat, Wild [5]: 15; Plant response rating, Oat, Wild ([5]; 31 g ai/ha, 13 to 15 days): 5; Plant response rating, Oat, Wild ([5]; 62 g ai/ha): 5; Plant response rating (0 to 100), Nutsedge, Yellow [6]: 5; Plant response rating, Nutsedge, Yellow ([6]; 31 g ai/ha, 13 to 15 days): 5; Plant response rating, Nutsedge, Yellow ([6]; 62 g ai/ha): 20; Blackgrass plant response rating ([7]; 13 to 15 days): 0; Plant response rating (0 to 100), Blackgrass [7]: 5; Plant response rating, Blackgrass ([7]; 31 g ai/ha, 13 to 15 days): 0; Plant response rating, Blackgrass ([7]; 62 g ai/ha): 5; Ragweed plant response rating [8, 17]: 40; Ragweed plant response rating [8, 18]: 75; Ragweed plant response rating [8, 19]: 100; Plant response rating, Ragweed [8]: 55; Plant response rating (0 to 100), Wheat [9]: 5; Plant response rating, Wheat ([9]; 31 g ai/ha, 13 to 15 days): 0; Plant response rating, Wheat ([9]; 62 g ai/ha): 0; Nutsedge, Yellow plant response rating [10, 17]: 0; Nutsedge, Yellow plant response rating [10, 18]: 10; Nutsedge, Yellow plant response rating [10, 19]: 70; Plant response rating, Nutsedge, Yellow [10]: 5; Plant response rating, Pigweed [11]: 90; Pigweed plant response rating [11]: 100; Corn plant response rating ([12]; 13 to 15 days): 5; Plant response rating (0 to 100), Corn [12]: 5; Plant response rating, Corn ([12]; 31 g ai/ha, 13 to 15 days): 5; Plant response rating, Corn ([12]; 62 g ai/ha): 5; Ryegrass, Italian plant response rating [13, 17]: 0; Ryegrass, Italian plant response rating [13, 18]: 45; Ryegrass, Italian plant response rating [13, 19]: 50; Plant response rating, Ryegrass, Italian [13]: 5; Foxtail, Giant plant response rating ([14]; 13 to 15 days): 5; Plant response rating (0 to 100), Foxtail, Giant [14]: 10; Plant response rating, Foxtail, Giant ([14]; 31 g ai/ha, 13 to 15 days): 5; Plant response rating, Foxtail, Giant ([14]; 62 g ai/ha): 5; Soybean plant response rating [15, 17]: 30; Soybean plant response rating [15, 18]: 90; Soybean plant response rating [15, 19]: 98; Plant response rating, Soybean [15]: 45; Pigweed plant response rating [16, 17]: 55; Pigweed plant response rating [16, 18]: 100; Pigweed plant response rating [16, 19]: 100; Plant response rating, Pigweed [16]: 90

**Q.** What does the source list for `N#Cc1cccc(Oc2ncc(F)cn2)c1-n1cc(I)cn1` [Compound 86]?
**A.** Morningglory plant response rating [1, 17]: 10; Morningglory plant response rating [1, 18]: 60; Morningglory plant response rating [1, 19]: 100; Plant response rating, Morningglory [1]: 25; Blackgrass plant response rating [2, 17]: 0; Blackgrass plant response rating [2, 18]: 90; Blackgrass plant response rating [2, 19]: 98; Plant response rating, Blackgrass [2]: 20; Barnyardgrass plant response rating ([3]; 13 to 15 days): 0; Plant response rating (0 to 100), Barnyardgrass [3]: 5; Plant response rating, Barnyardgrass ([3]; 31 g ai/ha, 13 to 15 days): 5; Plant response rating, Barnyardgrass ([3]; 62 g ai/ha): 5; Chickweed plant response rating ([4]; 13 to 15 days): 40; Plant response rating (0 to 100), Chickweed [4]: 80; Plant response rating, Chickweed ([4]; 31 g ai/ha, 13 to 15 days): 55; Plant response rating, Chickweed ([4]; 62 g ai/ha): 60; Plant response rating (0 to 100), Oat, Wild [5]: 10; Plant response rating, Oat, Wild ([5]; 31 g ai/ha, 13 to 15 days): 0; Plant response rating, Oat, Wild ([5]; 62 g ai/ha): 5; Plant response rating (0 to 100), Nutsedge, Yellow [6]: 5; Plant response rating, Nutsedge, Yellow ([6]; 31 g ai/ha, 13 to 15 days): 0; Plant response rating, Nutsedge, Yellow ([6]; 62 g ai/ha): 5; Blackgrass plant response rating ([7]; 13 to 15 days): 5; Plant response rating (0 to 100), Blackgrass [7]: 10; Plant response rating, Blackgrass ([7]; 31 g ai/ha, 13 to 15 days): 5; Plant response rating, Blackgrass ([7]; 62 g ai/ha): 5; Ragweed plant response rating [8, 17]: 5; Ragweed plant response rating [8, 18]: 100; Ragweed plant response rating [8, 19]: 100; Plant response rating, Ragweed [8]: 20; Plant response rating (0 to 100), Wheat [9]: 0; Plant response rating, Wheat ([9]; 31 g ai/ha, 13 to 15 days): 0; Plant response rating, Wheat ([9]; 62 g ai/ha): 0; Nutsedge, Yellow plant response rating [10, 17]: 0; Nutsedge, Yellow plant response rating [10, 18]: 5; Nutsedge, Yellow plant response rating [10, 19]: 35; Plant response rating, Nutsedge, Yellow [10]: 0; Plant response rating, Pigweed [11]: 100; Pigweed plant response rating [11]: 100; Corn plant response rating ([12]; 13 to 15 days): 5; Plant response rating (0 to 100), Corn [12]: 10; Plant response rating, Corn ([12]; 31 g ai/ha, 13 to 15 days): 5; Plant response rating, Corn ([12]; 62 g ai/ha): 5; Ryegrass, Italian plant response rating [13, 17]: 0; Ryegrass, Italian plant response rating [13, 18]: 30; Ryegrass, Italian plant response rating [13, 19]: 35; Plant response rating, Ryegrass, Italian [13]: 0; Foxtail, Giant plant response rating ([14]; 13 to 15 days): 5; Plant response rating (0 to 100), Foxtail, Giant [14]: 25; Plant response rating, Foxtail, Giant ([14]; 31 g ai/ha, 13 to 15 days): 5; Plant response rating, Foxtail, Giant ([14]; 62 g ai/ha): 15; Soybean plant response rating [15, 17]: 35; Soybean plant response rating [15, 18]: 75; Soybean plant response rating [15, 19]: 85; Plant response rating, Soybean [15]: 45; Pigweed plant response rating [16, 17]: 90; Pigweed plant response rating [16, 18]: 100; Pigweed plant response rating [16, 19]: 100; Plant response rating, Pigweed [16]: 100
